Assay results from the supplement of paper PMC11451515.

Tested on: NOMO1
Assay: cell viability relative to DMSO control; higher = less cytotoxic
Settings: 48 h
Procedure, shortened: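 Library compounds in DMSO were pin-dosed in an 11-point threefold series (47 μM to 0.79 nM) onto leukemia cells in 1536-well plates (5 μl). Plates held 500 cells/well of NOMO1 or SEM or 1000 cells/well of P12-Ichikawa, each adapted for at least four passages in each medium. Luminescence was read with CellTiter-Glo One after 48 h at 37°C. Viability means the per-plate percentage relative to DMSO wells, using cell-free wells as background.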

[1] = HPLM + 10% dialyzed FBS, 0.000781 µM
[2] = HPLM + 10% dialyzed FBS, 0.00234 µM
[3] = HPLM + 10% dialyzed FBS, 0.00702 µM
[4] = HPLM + 10% dialyzed FBS, 0.0211 µM
[5] = HPLM + 10% dialyzed FBS, 0.0632 µM
[6] = HPLM + 10% dialyzed FBS, 0.19 µM
[7] = HPLM + 10% dialyzed FBS, 0.569 µM
[8] = HPLM + 10% dialyzed FBS, 1.71 µM
[9] = HPLM + 10% dialyzed FBS, 5.12 µM
[10] = HPLM + 10% dialyzed FBS, 15.4 µM
[11] = HPLM + 10% dialyzed FBS, 46.1 µM
[12] = RPMI 5 mM glucose + 10% FBS, 0.000781 µM
[13] = RPMI 5 mM glucose + 10% FBS, 0.00234 µM
[14] = RPMI 5 mM glucose + 10% FBS, 0.00702 µM
[15] = RPMI 5 mM glucose + 10% FBS, 0.0211 µM
[16] = RPMI 5 mM glucose + 10% FBS, 0.0632 µM
[17] = RPMI 5 mM glucose + 10% FBS, 0.19 µM
[18] = RPMI 5 mM glucose + 10% FBS, 0.569 µM
[19] = RPMI 5 mM glucose + 10% FBS, 1.71 µM
[20] = RPMI 5 mM glucose + 10% FBS, 5.12 µM
[21] = RPMI 5 mM glucose + 10% FBS, 15.4 µM
[22] = RPMI 5 mM glucose + 10% FBS, 46.1 µM
[23] = RPMI 5 mM glucose + 10% dialyzed FBS, 0.000781 µM
[24] = RPMI 5 mM glucose + 10% dialyzed FBS, 0.00234 µM
[25] = RPMI 5 mM glucose + 10% dialyzed FBS, 0.00702 µM
[26] = RPMI 5 mM glucose + 10% dialyzed FBS, 0.0211 µM
[27] = RPMI 5 mM glucose + 10% dialyzed FBS, 0.0632 µM
[28] = RPMI 5 mM glucose + 10% dialyzed FBS, 0.19 µM
[29] = RPMI 5 mM glucose + 10% dialyzed FBS, 0.569 µM
[30] = RPMI 5 mM glucose + 10% dialyzed FBS, 1.71 µM
[31] = RPMI 5 mM glucose + 10% dialyzed FBS, 5.12 µM
[32] = RPMI 5 mM glucose + 10% dialyzed FBS, 15.4 µM
[33] = RPMI 5 mM glucose + 10% dialyzed FBS, 46.1 µM

Row | SMILES | cell viability [1] [%] | cell viability [2] [%] | cell viability [3] [%] | cell viability [4] [%] | cell viability [5] [%] | cell viability [6] [%] | cell viability [7] [%] | cell viability [8] [%] | cell viability [9] [%] | cell viability [10] [%] | cell viability [11] [%] | cell viability [12] [%] | cell viability [13] [%] | cell viability [14] [%] | cell viability [15] [%] | cell viability [16] [%] | cell viability [17] [%] | cell viability [18] [%] | cell viability [19] [%] | cell viability [20] [%] | cell viability [21] [%] | cell viability [22] [%] | cell viability [23] [%] | cell viability [24] [%] | cell viability [25] [%] | cell viability [26] [%] | cell viability [27] [%] | cell viability [28] [%] | cell viability [29] [%] | cell viability [30] [%] | cell viability [31] [%] | cell viability [32] [%] | cell viability [33] [%]
1 | C[C@]12CC[C@H]3[C@@H](CC[C@H]4NC(=O)\C=C/[C@]34C)[C@@H]1CC[C@@H]2C(=O)NC5=CC(=CC=C5C(F)(F)F)C(F)(F)F | 123 | 123 | 122 | 118 | 123 | 114 | 101 | 118 | 107 | 96.1 | 94.7 | 117 | 125 | 114 | 100 | 111 | 109 | 112 | 112 | 107 | 96.3 | 98.8 | 105 | 120 | 105 | 118 | 104 | 111 | 111 | 103 | 94.9 | 103 | 96.9
2 | CC(C)(O)CC[C@@H](O)[C@](C)(O)[C@H]1CC[C@@]2(O)C/3=C/C(=O)[C@@H]4C[C@@H](O)[C@@H](O)C[C@]4(C)[C@H]3CC[C@]12C | 111 | 98.6 | 110 | 86.8 | 84.6 | 98.5 | 98 | 103 | 87.4 | 94.9 | 81.7 | 87.9 | 97.3 | 86.9 | 83.8 | 93.2 | 91.9 | 91.2 | 88.6 | 80 | 84.2 | 83.1 | 108 | 110 | 108 | 95.2 | 105 | 91.6 | 105 | 90 | 86.2 | 88.1 | 94.4
3 | O=C(O)C1(Cc2cccc(Nc3nccs3)n2)CCC(Oc2cccc(Cl)c2F)CC1 (stereo unspecified) | 98.9 | 116 | 117 | 108 | 104 | 116 | 120 | 69.6 | 45.3 | 34.2 | 35.5 | 110 | 96.2 | 99.5 | 91.9 | 106 | 102 | 96.9 | 74.1 | 43.7 | 31.8 | 23.2 | 107 | 104 | 98.8 | 104 | 105 | 105 | 102 | 72 | 50.4 | 34.4 | 34
4 | Cc1nc2cnc3ccc(C#Cc4cccnc4)cc3c2n1-c1ccc(C(C)(C)C#N)cc1 | 72.6 | 84.9 | 82.3 | 83.2 | 50.2 | 59.6 | 38.7 | 44.8 | 43.3 | 36.3 | 8.48 | 65 | 78.6 | 69.6 | 81.1 | 61.8 | 62.7 | 32 | 47.1 | 44.1 | 38.6 | 7.85 | 66.4 | 81.6 | 91.9 | 84.9 | 56.7 | 60.7 | 30.4 | 48.8 | 40.1 | 48.4 | 9.18
5 | CC(C)C1NC(=O)C(NC(=O)C2=C3\N=C\4/C(=C(C)\C(=O)\C(=C4C(=O)NC5C(C)OC(=O)C(C(C)C)N(C)C(=O)CN(C)C(=O)C6CCCN6C(=O)C(NC5=O)C(C)C)N)OC3=C(C)C=C2)C(C)OC(=O)C(C(C)C)N(C)C(=O)CN(C)C(=O)C7CCCN7C1=O (stereo unspecified) | 7.64 | 9.4 | 7.42 | 5.43 | 6.88 | 5.51 | 6.57 | 6.12 | 3.81 | 2.42 | 2.47 | 7.96 | 9.36 | 7.73 | 5.14 | 6.66 | 5.99 | 5.54 | 6.58 | 4.43 | 2.79 | 1.97 | 5.95 | 8.79 | 6.56 | 5.07 | 5.04 | 5.51 | 4.5 | 3.94 | 3.31 | 2.14 | 2
6 | Cc1c(C)n(Cc2ccc(-c3ccccc3C(=O)O)cc2)c2ccc(C(=O)N[C@@H](C)c3ccc([N+](=O)[O-])cc3)cc12 | 92.6 | 107 | 106 | 103 | 115 | 116 | 102 | 86.8 | 86 | 32.2 | 35.1 | 118 | 107 | 111 | 126 | 105 | 112 | 124 | 101 | 101 | 18.7 | 12.3 | 108 | 121 | 104 | 109 | 114 | 107 | 125 | 106 | 111 | 19.2 | 16.2
7 | CC(C)(C)OC(=O)N[C@H]1CCCCC/C=C\[C@@H]2C[C@@]2(C(=O)N[S+](=O)([O-])C2CC2)NC(=O)[C@@H]2C[C@@H](OC(=O)N3Cc4cccc(F)c4C3)CN2C1=O | 125 | 115 | 124 | 114 | 108 | 121 | 103 | 120 | 114 | 111 | 111 | 96.8 | 93.3 | 97.2 | 100 | 114 | 106 | 113 | 99.9 | 94 | 101 | 102 | 97.4 | 92.7 | 111 | 98.5 | 110 | 100 | 123 | 109 | 104 | 90.1 | 103
8 | CC1(C)O[C@@H]2C[C@H]3[C@@H]4C[C@H](F)C5=CC(=O)C=C[C@]5(C)[C@@]4(F)[C@@H](O)C[C@]3(C)[C@]2(C(=O)CO)O1 | 105 | 112 | 121 | 122 | 121 | 101 | 101 | 118 | 112 | 108 | 94 | 115 | 101 | 108 | 108 | 112 | 114 | 106 | 102 | 104 | 97.9 | 91.7 | 109 | 109 | 98.3 | 114 | 112 | 102 | 96.7 | 102 | 110 | 97.8 | 86.5
9 | CC[S+](=O)([O-])c1cccc(-c2cc(C(=O)NC3CCN(C)CC3)c(C)c3[nH]c4ncc(C)cc4c23)c1 | 118 | 128 | 120 | 136 | 126 | 89.9 | 115 | 68.2 | 52.6 | 51 | 6.96 | 114 | 115 | 114 | 135 | 128 | 111 | 77.3 | 83.9 | 92.6 | 47 | 8.64 | 124 | 122 | 130 | 128 | 138 | 87.7 | 80.7 | 86.8 | 80.3 | 48.3 | 8.02
10 | COc1ccc([C@@H]2CC(=O)c3c(O)cc(O[C@@H]4O[C@H](CO[C@@H]5O[C@@H](C)[C@H](O)[C@@H](O)[C@H]5O)[C@@H](O)[C@H](O)[C@H]4O)cc3O2)cc1O | 107 | 117 | 122 | 128 | 116 | 123 | 125 | 118 | 115 | 108 | 103 | 120 | 106 | 107 | 114 | 121 | 118 | 117 | 123 | 120 | 119 | 118 | 98.8 | 106 | 115 | 113 | 110 | 96.6 | 115 | 125 | 115 | 101 | 101
11 | CCN1CCN(CC1)CC(=O)NC2=CC=C(C3=C2C4=C(S3)C=CC=C4)C5=C6O\C(=C/C(=O)C6=CC=C5)N7CCOCC7 | 108 | 121 | 122 | 123 | 117 | 124 | 121 | 94.2 | 79.7 | 63.6 | 75.3 | 116 | 115 | 123 | 120 | 128 | 129 | 130 | 120 | 98 | 74.5 | 86.1 | 120 | 120 | 131 | 118 | 128 | 128 | 109 | 110 | 77.8 | 64.3 | 99.1
12 | CC(C)c1nc(CN(C)C(=O)N[C@H](C(=O)N[C@@H](Cc2ccccc2)C[C@H](O)[C@H](Cc2ccccc2)NC(=O)OCc2cncs2)C(C)C)cs1 | 92.4 | 107 | 100 | 95.3 | 89.9 | 88.9 | 98.5 | 70.5 | 94.4 | 80.7 | 74.3 | 75.3 | 75.3 | 78.5 | 81.2 | 77.4 | 80.2 | 77.6 | 79.3 | 79.9 | 75.7 | 79 | 86.5 | 80.7 | 93 | 90.6 | 92.8 | 83.2 | 81.7 | 77.1 | 84.9 | 79.2 | 77.1
